Assay [1] deals with T1, PTP1B1-281 (PTP1B282 in FIG. 12) (Homo sapiens, UniProt P18031).
T1 construct: made in house; host or cells: E. coli BL21 (DE3)
T1 sequence (P18031 1-281): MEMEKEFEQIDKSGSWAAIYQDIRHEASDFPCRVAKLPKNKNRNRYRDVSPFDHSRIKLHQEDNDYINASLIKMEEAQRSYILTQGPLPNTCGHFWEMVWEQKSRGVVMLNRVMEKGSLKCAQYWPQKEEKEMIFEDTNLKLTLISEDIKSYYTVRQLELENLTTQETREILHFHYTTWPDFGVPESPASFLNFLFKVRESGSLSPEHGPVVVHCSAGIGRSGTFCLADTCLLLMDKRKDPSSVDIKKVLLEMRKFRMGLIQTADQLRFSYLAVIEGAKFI
Nature of the assay: pNPP hydrolysis by PTP1B lacking the α7 helix. The format is biochemical, H. sapiens. Particulars: for Ki: PTP1B1-281. As for the experimental part:
(§1) Enzyme kinetics. To examine terpenoid-mediated inhibition, we measured PTP-catalyzed hydrolysis of p-nitrophenyl phosphate (pNPP) or 4-methylumbelliferyl phosphate (4-MUP, used when KM for pNPP was large) in the presence of various concentrations of terpenoids. Each reaction included PTP (0.05 μM PTP1B/TCPTP or 0.1 μM SHP1/SHP2 in 50 mM HEPES, 0.5 mM TCEP, 50 μg/ml BSA), pNPP (0.33, 0.67, 2, 5, 10, and 15 mM) or 4-MUP (0.13, 0.27, 0.8, 2.27, 2.93, 4.53, 7.07, and 8 mM), inhibitor (with concentrations listed in the figures), buffer (50 mM HEPES pH=7.3, 50 μg/ml BSA), and DMSO at 10% v/v. We monitored the formation of p-nitrophenol by measuring absorbance at 405 nm every 10 seconds for 5 minutes on a SpectraMax M2 plate reader and the formation of 4-methylumbelliferyl by measuring fluorescence at 450 nm (370 nm ex, 435 nm cutoff, medium gain).
(§2) We used a custom MATLAB script to process all raw kinetic data. This script removed all concentration values that fell outside of either (i) the range of our standard curve (absorbance/fluorescence vs. μM; FIG. 39) or (ii) the initial rate regime (>10% of the pNPP or 4-MUP concentration used in the assay). When this step reduced kinetic dataset to fewer than ten points, we re-measured those datasets to collect at least ten. We fit final datasets, in turn, with a linear regression model (using Matlab's backslash operator).
(§3) We evaluated kinetic models in three steps: (i) We fit initial-rate measurements collected in the absence and presence of inhibitors to Michaelis-Menten and inhibition models, respectively (here, we used the nlinfit and fminsearch functions from MATLAB; TABLE 12). (ii) We used an F-test to compare the mixed model to the single-parameter model with the least sum squared error (here, we used the fedf function from MATLAB to assign p-values), and we accepted the mixed model when p<0.05. (iii) We used the Akaike's Information Criterion (AIC) to compare the best-fit single parameter model to each alternative single parameter model, and we accepted the “best-fit” model when the difference in AIC (Δi) exceed 5 for all comparisons.^78 We note: For AD, AB, and (+) 1-(10),4-cadinadiene this criterion was not met; both noncompetitive and uncompetitive models, however, yielded indistinguishable ICso's.
(§4) We used the MATLAB function “nlparci” to determine the confidence intervals of kinetic parameters, and we propagated those intervals to estimate corresponding confidence intervals for each IC50.

A further assay relates to TCPTP1-281. Nature of the assay: pNPP hydrolysis by TC-PTP lacking the α7-equivalent region. The format is biochemical, H. sapiens. Particulars: for change in PTP1B/TC-PTP selectivity on removal of the α7 helix (or equivalent) from both enzymes: PTP1B1-281 and TCPTP1-281 vs full constructs; for Ki: TCPTP1-281. As for the experimental part:
as §1, §2, §3, §4

The next assay concerns the target T2, SHP2 (SHP2223-565) (Homo sapiens, UniProt Q06124).
T2 construct: made in house; host or cells: E. coli BL21 (DE3)
T2 sequence (Q06124 223-565 limits assumed): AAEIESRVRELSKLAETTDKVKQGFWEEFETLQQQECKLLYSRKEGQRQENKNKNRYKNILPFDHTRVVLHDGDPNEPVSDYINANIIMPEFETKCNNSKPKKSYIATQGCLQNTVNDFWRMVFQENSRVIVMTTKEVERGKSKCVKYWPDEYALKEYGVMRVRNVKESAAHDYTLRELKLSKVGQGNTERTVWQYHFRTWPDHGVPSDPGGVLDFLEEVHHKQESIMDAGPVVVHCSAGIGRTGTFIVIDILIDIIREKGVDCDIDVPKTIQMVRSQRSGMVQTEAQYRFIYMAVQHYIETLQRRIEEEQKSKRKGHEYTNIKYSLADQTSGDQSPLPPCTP
Nature of the assay: SHP2-catalyzed hydrolysis of 4-MUP in the presence of terpenoids. The format is biochemical, H. sapiens. Particulars: for Ki: SHP2223-565. As for the experimental part:
as §1, §2, §3, §4

Another assay concerns the target T3, PTP1B (Homo sapiens, UniProt P18031).
T3 sequence (P18031 1-321 limits assumed): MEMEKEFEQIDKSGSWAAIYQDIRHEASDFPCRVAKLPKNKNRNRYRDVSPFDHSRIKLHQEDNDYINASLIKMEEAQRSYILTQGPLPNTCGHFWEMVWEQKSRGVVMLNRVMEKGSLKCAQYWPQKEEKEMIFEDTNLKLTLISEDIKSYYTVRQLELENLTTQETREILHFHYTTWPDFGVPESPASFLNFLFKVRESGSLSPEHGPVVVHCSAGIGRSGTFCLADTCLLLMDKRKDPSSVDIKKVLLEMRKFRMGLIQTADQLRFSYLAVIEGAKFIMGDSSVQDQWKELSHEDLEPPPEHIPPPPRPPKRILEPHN
Put plainly: Ligand efficiency (TABLE 15). The arrangement: species or system H. sapiens. Particulars: for IC50: PTP1B, the patent's own terpenoid inhibitors.

The mark [2] stands for this setting: competitive model of inhibition, read-out: Fit par. Ki, competitive model.
The mark [3] stands for this setting: mixed model, competitive constant, read-out: Fit par. Ki,c, mixed model.
[4] abbreviates: mixed model, uncompetitive constant, read-out: Fit par. Ki,u, mixed model.
Setting [5] is: noncompetitive model of inhibition, read-out: Fit par. Ki, noncompetitive model.
Where [6] appears, read: uncompetitive model of inhibition, read-out: Fit par. Ki, uncompetitive model.

The structures appear in SMILES notation. Entries after “also recorded” stand apart in the source; their conditions may differ. Where two headings read alike, the source gives them in different places.

For orientation: Ki means the equilibrium dissociation constant of an inhibitor or competing ligand from its target. Usually IC50 stands for the concentration that inhibits the measured activity by half. Read a low IC50 as higher potency. Regarding `C=C(C)[C@@H]1CC[C@@H](C)[C@@H]2CCC(C)=C[C@@H]21` [amorphadiene], the Ki in assay [1] (setting [2]) was found to be 37.9 µM; in assay [1] (setting [3]), 157 µM; in assay [1] (setting [4]), 271 µM; in assay [1] (setting [5]), 244 µM; in assay [1] (setting [6]), 210 µM; at TCPTP1-281 (setting [2]) it was 87.2 µM. Moreover, the Ki at TCPTP1-281 (setting [4]) amounted to 356 µM; at TCPTP1-281 (setting [5]), 400 µM; at TCPTP1-281 (setting [6]) it was 356 µM; at SHP2 (SHP2223-565) (setting [2]), 25.1 µM; on SHP2 (SHP2223-565) (setting [3]) it was 236 µM; at SHP2 (SHP2223-565) (setting [4]), 132 µM. For the same compound, the values for the Ki on SHP2 (SHP2223-565) (setting [5]) and at SHP2 (SHP2223-565) (setting [6]) were 146 µM and 117 µM, respectively. In addition, the “potency against PTP1B282 (no α7 helix) relative to PTP1B321” value in assay [1] (pNPP, less potent on PTP1B282) is listed as “~ four-fold”. Further, in the assay with TCPTP1-281 (listed as AD), the “change in PTP1B/TC-PTP selectivity on removal of the α7 helix (or equivalent) from both enzymes” value is on record as “four-fold; also recorded: reduces the selectivity”. For the same compound, the “potency against SHP2 relative to PTP1B” value on SHP2 (SHP2223-565) (4-MUP, less potent on SHP2) is on record as “three-fold”. For the same compound, the “ligand efficiency” value on PTP1B ((−2.303RT)/HAC * log(IC50)) was 0.39 kcal/mol-atom; at PTP1B (TABLE 15) it was “high”. On PTP1B, this compound registered an IC50 of 50 µM.

On to `CC(C)=CCC=C(C)C1CC=C(C)CC1` (stereo not drawn) [α-bisabolene], for which the Ki amounted to 6.51 µM in assay [1] (setting [2]); 39 µM in assay [1] (setting [3]); 47.7 µM in assay [1] (setting [4]); 46.3 µM in assay [1] (setting [5]); 40 µM in assay [1] (setting [6]); 13.7 µM on TCPTP1-281 (setting [2]). Besides, the Ki at TCPTP1-281 (setting [3]) is 3610 µM; at TCPTP1-281 (setting [4]), 69.3 µM; on TCPTP1-281 (setting [5]), 76.2 µM; at TCPTP1-281 (setting [6]), 69.2 µM. Besides, the “change in PTP1B/TC-PTP selectivity on removal of the α7 helix (or equivalent) from both enzymes” value with TCPTP1-281 (listed as AB) is “insensitive and not”. Moreover, at SHP2 (SHP2223-565) (4-MUP), the “inhibition of SHP2” value is “low potency”. The “% inhibition of SHP2” value on SHP2 (SHP2223-565) (at the solubility limit, 4-MUP) was at most 25%. In addition, the “ligand efficiency” value at PTP1B ((−2.303RT)/HAC * log(IC50)) is reported as 0.44 kcal/mol-atom; on PTP1B (TABLE 15), “high”. This compound also had an IC50 against PTP1B of 13 µM.
